# Measured values taken from PMC10033409, “Autoregulation of GPCR signalling through the third intracellular loop” (Nature, 2023).
# Values joined by “and” are separate entries in the source; they are usually repeats but may differ in a detail not shown here. Equal values may be shown once.
# Legend:
# [1] = tested on: PTH1R–Gs peptide; test: PTH1R-luciferase complementation reporter assay, Gs peptide; format: biochemical, human; details: PTH1R construct named by the receptor or protein whose sequence replaces ICL3 (WT = wild-type); X axis of Figure 5G
# [2] = tested on: PTH1R–Gq peptide; test: PTH1R-luciferase complementation reporter assay, Gq peptide; format: biochemical, human; details: PTH1R construct named by the receptor or protein whose sequence replaces ICL3 (WT = wild-type); Y axis of Figure 5G
# Protocol: For PTH1R luciferase complementation reporter assays, cells were seeded the day prior to transfection at 25-30% confluence on 12-well plates. For each transfection, 0.5 μg DNA, 1.5 μl X-tremeGENE HP, and 100 μl Opti-MEM were combined, incubated for 15-20 min, and added to seeded wells. For each mutant, PTH1R-Gs peptide, PTH1R-Gq peptide and PTH1R-(no peptide) constructs were transfected in parallel. Spep and Qpep constructs were transfected 24 h prior to collection, and no-peptide constructs were transfected 18 h before collection. […] Media in each well was used to gently shear and resuspend the cells by pipetting. The cell mixture was centrifuged (3 min, 300g) and the media was aspirated. Cell pellet was resuspended in 1 ml PBS and centrifuged again as above. […] Cellular debris was removed by centrifugation (1,000g for 1 min). To collect additional vesicles, debris was resuspended in 0.3 ml PBS, briefly vortexed, and centrifuged again (1,000g for 1 min). The ~0.9 ml of combined decanted supernatant was centrifuged one additional time (1,000g for 2 min) to better remove cellular debris. […] Vesicle samples were collected in a 96-well clear bottom plate and assayed for TagRFP fluorescence (Tecan Spark, excitation 521 nm, emission 585 nm, gain 150). For each set of constructs for a given […] ([…] control), samples were diluted to the lowest TagRFP counts. […] The plate was tapped 2-3 times to mix, and the kinetic read was resumed. Moving averages were computed for each kinetic trace (3-point averages for 5 min equilibration, 8-point moving averages post-drug treatment). Each kinetic trace was normalized to the last point of the pre-drug equilibration. The maximum luminescence value that appeared stable over time was used for further analysis. Specific Spep and Qpep signals were calculated by subtracting the control value from the Spep value and the Qpep value for a given experiment.
# [3] = target: T1, CB1R (Mus musculus, UniProt P47746, DEL312-328); test: cAMP accumulation, CB1R; format: cell-based, murine; details: CB1R ∆ICL3; saturating agonist concentration; 500 µM IBMX
# T1 construct: expressed in transfected cells; host or cells: transfected cells (HEK 293T for the β2AR assay)
# T1 sequence (P47746 with tags, fused parts or gaps DEL312-328): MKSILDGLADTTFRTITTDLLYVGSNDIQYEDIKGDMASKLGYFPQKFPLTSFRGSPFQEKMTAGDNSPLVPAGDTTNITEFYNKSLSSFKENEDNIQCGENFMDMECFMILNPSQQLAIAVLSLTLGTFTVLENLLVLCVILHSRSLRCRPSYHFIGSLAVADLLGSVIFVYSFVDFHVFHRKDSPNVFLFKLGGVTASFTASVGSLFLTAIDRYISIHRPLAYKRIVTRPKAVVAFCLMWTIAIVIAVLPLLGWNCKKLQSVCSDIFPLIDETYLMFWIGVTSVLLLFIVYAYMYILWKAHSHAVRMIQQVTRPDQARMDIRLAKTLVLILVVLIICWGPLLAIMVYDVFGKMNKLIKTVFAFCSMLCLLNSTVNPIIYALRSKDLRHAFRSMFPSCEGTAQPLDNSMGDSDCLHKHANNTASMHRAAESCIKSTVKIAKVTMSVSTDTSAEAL
# Protocol: (§1) One millilitre of medium was removed from each well containing transfected cells. The remaining volume was used to gently shear and resuspend the cells by pipetting. The cell mixture was centrifuged (3 min, 300g) and media was removed using a vacuum manifold. […] . The cells were washed once by repeating this procedure.
# (§2) For all other second messenger assays, expression level and cell density of each condition was estimated through fluorescence. […] Cells were resuspended at 350,000 ± 30,000 fluorescence counts at a wavelength representing optical density of the sample (excitation 430 nm/emission 450 nm), corresponding with 2 × 10^6 ± 5 × 10^5 cells per m^l. This was confirmed by counting the cells on a haemocytometer (Countess II). The following metrics were assessed for optimal expression: mCerulean peak emission (excitation 430 nm/475 nm):optical density emission (excitation 430 nm/emission 450 nm) of 2.0 ± 0.3 and mCitrine peak emission (excitation 490 nm/emission 525 nm):mCerulean peak emission (excitation 430 nm/emission 475 nm) of 2.0 ± 0.2.
# (§3) Resuspended cells were added 1:1 with a 2× concentration of ligand (10 µl final) into an opaque 384-well flat bottom plate (Greiner Bio-One). […] . for FSK inhibition assays with β-ARs, 100 µM metoprolol was used. […] Luminescence was measured on a Tecan Spark plate reader (500 ms integration, one measurement per well).
# [4] = target: T2, CB1R (Mus musculus, UniProt P47746); test: cAMP accumulation, CB1R; format: cell-based, murine; details: CB1R Wild-Type; saturating agonist concentration; 500 µM IBMX
# T2 construct: expressed in transfected cells; host or cells: transfected cells (HEK 293T for the β2AR assay)
# T2 sequence (P47746 whole entry): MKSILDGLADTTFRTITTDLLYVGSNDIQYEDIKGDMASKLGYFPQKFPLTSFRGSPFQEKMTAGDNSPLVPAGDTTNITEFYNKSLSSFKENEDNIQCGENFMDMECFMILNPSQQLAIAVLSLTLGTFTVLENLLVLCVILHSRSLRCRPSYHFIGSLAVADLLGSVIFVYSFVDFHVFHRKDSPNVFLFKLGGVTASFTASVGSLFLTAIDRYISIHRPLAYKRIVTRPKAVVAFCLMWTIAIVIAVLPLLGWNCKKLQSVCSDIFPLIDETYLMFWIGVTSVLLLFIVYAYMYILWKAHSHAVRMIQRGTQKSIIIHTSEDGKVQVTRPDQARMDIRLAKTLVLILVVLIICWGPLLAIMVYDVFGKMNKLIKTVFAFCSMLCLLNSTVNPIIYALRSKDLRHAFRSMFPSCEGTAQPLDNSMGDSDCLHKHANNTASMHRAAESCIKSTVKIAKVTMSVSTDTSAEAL
# Protocol: as §1, §2, §3
# [5] = target: T1, CB1R; test: InsP1 accumulation, CB1R; format: cell-based, murine; details: CB1R ∆ICL3; saturating agonist concentration
# Protocol: (§4) One millilitre of medium was removed from each well containing transfected cells. The remaining volume was used to gently shear and resuspend the cells by pipetting. The cell mixture was centrifuged (3 min, 300g) and media was removed using a vacuum manifold. […] The cells were washed once by repeating this procedure.
# as §2
# (§5) Resuspended cells were added 1:1 with a 2× concentration of ligand (70 µl final) into an opaque 96-well U-bottom plate (Greiner Bio-One). […] Plates were incubated at 37 °C for 2 h to stimulate InsP1 production. […] FRET ratio for each reading was calculated as the ratio of acceptor emission to donor emission. […]
# [6] = target: T2, CB1R; test: InsP1 accumulation, CB1R; format: cell-based, murine; details: CB1R Wild-Type; saturating agonist concentration
# Protocol: as §4, §2, §5
# [7] = target: T3, A1R (Homo sapiens, UniProt P30542, DEL216-222); test: InsP1 accumulation, A1R; format: cell-based; details: AA1R ∆ICL3; saturating agonist concentration
# T3 construct: expressed in transfected cells; host or cells: transfected cells (HEK 293T for the β2AR assay)
# T3 sequence (P30542 with tags, fused parts or gaps DEL216-222): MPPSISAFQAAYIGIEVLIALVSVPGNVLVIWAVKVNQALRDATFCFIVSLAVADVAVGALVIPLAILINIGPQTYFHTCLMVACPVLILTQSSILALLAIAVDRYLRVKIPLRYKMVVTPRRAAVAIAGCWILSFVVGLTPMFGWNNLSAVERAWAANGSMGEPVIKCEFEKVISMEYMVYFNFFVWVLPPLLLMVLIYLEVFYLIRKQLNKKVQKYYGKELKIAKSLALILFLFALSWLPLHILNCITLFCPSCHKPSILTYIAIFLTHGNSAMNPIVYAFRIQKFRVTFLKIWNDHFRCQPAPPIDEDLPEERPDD
# From the text: (§6) For all other second messenger assays, expression level and cell density of each condition was estimated through fluorescence. Fluorescence spectra for mCerulean (Horiba Fluoromax 4, excitation 430 nm, emission scan 450–600 nm, bandpass 4 nm) and mCitrine (Horiba Fluoromax 4, excitation 490 nm, emission scan 500–600 nm, bandpass 4 nm) were acquired for each condition. Cells were resuspended at 350,000 ± 30,000 fluorescence counts at a wavelength representing optical density of the sample (excitation 430 nm/emission 450 nm), corresponding with 2 × 10^6 ± 5 × 10^5 cells per m^l. […]
# (§7) Resuspended cells were added 1:1 with a 2× concentration of ligand (70 µl final) into an opaque 96-well U-bottom plate (Greiner Bio-One). […] FRET ratio for each reading was calculated as the ratio of acceptor emission to donor emission. InsP1 signal for a drug and transfection combination was calculated as the average FRET ratio of a given transfection condition without drug treatment subtracted from the average FRET ratio of a of a given transfection condition with drug treatment.
# [8] = target: T4, A1R (Homo sapiens, UniProt P30542); test: InsP1 accumulation, A1R; format: cell-based; details: AA1R Wild-Type; saturating agonist concentration
# T4 sequence (P30542 1-326): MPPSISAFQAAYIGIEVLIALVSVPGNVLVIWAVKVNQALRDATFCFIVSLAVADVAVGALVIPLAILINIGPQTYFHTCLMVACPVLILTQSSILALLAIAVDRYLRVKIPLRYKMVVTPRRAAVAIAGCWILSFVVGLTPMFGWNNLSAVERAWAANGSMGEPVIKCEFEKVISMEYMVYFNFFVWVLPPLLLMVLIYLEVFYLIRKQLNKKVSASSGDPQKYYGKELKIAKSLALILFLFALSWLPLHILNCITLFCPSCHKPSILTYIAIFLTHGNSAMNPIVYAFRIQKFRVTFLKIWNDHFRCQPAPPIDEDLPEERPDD
# From the text: as §6, §7
# [9] = target: T3, A1R; test: cAMP accumulation, A1R; format: cell-based; details: AA1R ∆ICL3; saturating agonist concentration; 500 µM IBMX
# Protocol: as §1, §2, §3
# [10] = target: T4, A1R; test: cAMP accumulation, A1R; format: cell-based; details: AA1R Wild-Type; saturating agonist concentration; 500 µM IBMX
# Protocol: as §1, §2, §3
# [11] = target: β2AR ICL3 FRET sensor, β2AR(L258Azi/Y350Azi/∆351–413) (Homo sapiens, UniProt P07550, L258F/Y350F); test: Time-correlated single photon counting FRET assay, β2AR ICL3 FRET sensor (AZDye488/AZDye546)
# Protocol: Cell membranes were prepared following the procedure in ‘Crude cell membrane extracts’ through the first ultracentrifugation step (135,000g, 25 min, 4 °C). […] Solution was homogenized, first by passing through a 1 ml micropipette 10 times, then passing through a 20-gauge needle 10 times. To initiate the reaction, sodium ascorbate (50 mM) was added to the mixture and mixed by pipetting (2 ml final volume). Reactions were incubated with mild shaking (500 rpm) for 30 min at 25 °C.
# For conditions without drug, peptide or nanobody, an equivalent volume of assay buffer was added. Reactions were equilibrated for 5 min prior to reading. […] Time-resolved fluorescence decay data were fit to the equation: Decay=α1e^−t/τ^1+α2e^−t/τ^2+α3e^−t/τ^3
# Amplitude-weighted average lifetimes (τavg) were calculated from the three-exponential decay equation: τavg=(α1τ1+α2τ2+α3τ3)/(α1+α2+α3)
# Each condition was performed in technical duplicate or triplicate, depending on sensor yield.
# [12] = tested on: β2AR–Gs peptide FRET sensor; test: ∆FRET assay, β2AR–Gs peptide SPASM FRET sensor; details: wild-type β2AR–Gs peptide sensor
# [13] = target: β2AR–Gs peptide FRET sensor (Homo sapiens, UniProt P07550, DEL236-257); test: ∆FRET assay, β2AR–Gs peptide SPASM FRET sensor; details: β2AR(∆ICL3)–Gs peptide sensor
# [14] = tested on: β2AR; details: β2AR(∆ICL3); presence of Gq peptide
# Protocol: (§8) Reactions were equilibrated, washed, and measured following the same procedure listed above for the radioligand antagonist-binding assay. […] Weighted averages of these IC50 values were used for comparison purposes and inhibition constant (Ki) calculations. […] Binding assays were performed in technical duplicates. Three biological replicates were collected with different membrane preparations for each replicate.
# [15] = target: β2AR (Homo sapiens, UniProt P07550); details: wild-type β2AR; presence of Gq peptide
# Protocol: as §8
# [16] = tested on: β2AR; test: cAMP accumulation (cAMP-Glo), β2AR; format: cell-based, human; details: Extended Data Figure 6B
# [17] = target: β2AR–mCerulean (Homo sapiens, UniProt P07550, DEL236-262); details: ∆ICL3 β2AR–mCerulean; 10 µM biotinylated Gq peptide, 100 µM isoproterenol; single experiments 1-4
# Protocol: Bio-Spep/Bio-Qpep (10 µM final) was added to the reaction mixture (300 µl final) and equilibrated on ice for 30 min. […] To the remaining 200 µl, 20 µl of 0.4 mg ml^−1 streptavidin-coated magnetic beads were added to the reaction mixture, equilibrated for 5 min at ambient temperature, and precipitated using a neodymium disc magnet N52 (20 × 40 mm). Fluorescence spectra was taken of the remaining supernatant in duplicate.
# [18] = target: T5, β2AR L258Azi (Δ350-413) (Homo sapiens, UniProt P07550, L258F); test: Time-correlated single photon counting, other sensor designs and dye-only controls (mNeonGreen/Cy3, TagRFP/AZDye488, free dyes); format: biochemical; details: Extended Data Figure 4L
# T5 construct: HA; mNeonGreen, TagRFP or SNAP (differs by sensor design); expressed in transfected cells; host or cells: crude membrane extracts of transfected cells (HEK293), co-transfected with pIRE4-Azi
# Protocol: Solution was homogenized, first by passing through a 1 ml micropipette 10 times, then passing through a 20-gauge needle 10 times. To initiate the reaction, sodium ascorbate (50 mM) was added to the mixture and mixed by pipetting (2 ml final volume). Reactions were incubated with mild shaking (500 rpm) for 30 min at 25 °C. […] For conditions without drug, peptide or nanobody, an equivalent volume of assay buffer was added. Reactions were equilibrated for 5 min prior to reading.
# [19] = Extended Data Figure 6I, replicates 1-4
# [20] = β2AR wild-type and ICL3 alanine mutants, replicates N 1-6, some omitted from analysis
molecule,measurement,setting,value
5HT1D,"Specific Peptide Signal, Gs (Average)",[1],0.24
same,"Specific Peptide Signal, Gq (Average)",[2],-0.15
5HT2A,"Specific Peptide Signal, Gs (Average)",[1],0.37
same,"Specific Peptide Signal, Gq (Average)",[2],0.0157
CCCCC/C=C\C/C=C\C/C=C\C/C=C\CCCC(=O)OC(CO)CO [2-Arachidonoylglycerol],"cAMP (AU), Average",[3],0.16 AU
same,"cAMP (AU), Average",[4],0.05 AU
same,"IP1 (AU), Average",[5],0.27 AU
same,"IP1 (AU), Average",[6],0.14 AU
OC[C@H]1O[C@@H](n2cnc3c(NC4CCCC4)ncnc32)[C@H](O)[C@@H]1O [N^6-cyclopentyladenosine],"IP1 (AU), Average",[7],0.0652 AU
same,"IP1 (AU), Average",[8],0.15 AU
same,"cAMP (AU), Average",[9],0.0561 AU
same,"cAMP (AU), Average",[10],-0.0258 AU
ADRB1,"Specific Peptide Signal, Gs (Average)",[1],0.47
same,"Specific Peptide Signal, Gq (Average)",[2],0.0635
CNR2,"Specific Peptide Signal, Gs (Average)",[1],0.55
same,"Specific Peptide Signal, Gq (Average)",[2],0.16
DTENIRFVFAAVKDTILQLNLKEYNLV [Gq peptide],Donor-only sample (tau donor) Lifetime (ns),[11]; [19],2.34 ns and 2.38 ns and 2.28 ns and 2.27 ns
same,FRET sample (tau FRET) Lifetime (ns),[11]; [19],2.42 ns (2×) and 2.32 ns and 2.40 ns
same,effect on FRET of the ICL3 FRET sensor,[11]; Gq peptide alone,increased FRET to a similar level to the agonist alone
same,effect on FRET of the ICL3 FRET sensor,[11]; combination of agonist and Gq peptide,decreased FRET
same,effect on FRET of β2AR–Gs peptide sensor,[12],enhanced FRET
same,effect on FRET of β2AR–Gs peptide sensor,[13],did not enhance FRET
same,effect on agonist binding affinity,[14],this effect was lost
same,effect on agonist binding affinity,[15],increased agonist binding affinity
GPR27,"Specific Peptide Signal, Gs (Average)",[1],0.79
same,"Specific Peptide Signal, Gq (Average)",[2],0.14
Gamma-synuclein,"Specific Peptide Signal, Gs (Average)",[1],0.39
HRH1,"Specific Peptide Signal, Gs (Average)",[1],0.66
same,"Specific Peptide Signal, Gq (Average)",[2],-0.09
HVQ-AAA,cAMP (Relative to Wild-Type Average),[16]; Average,1.18
same,cAMP (Relative to Wild-Type Average),[16]; [20],0.92 and 1.04 and 1.40 and 1.30 and 1.16 and 1.28
Humanin,"Specific Peptide Signal, Gs (Average)",[1],0.41
N-Biotin-DTENIRFVFAAVKDTILQLNLKEYNLV [Bio-Qpep],Specific mCerulean bound,[17],0.09 and 0.14 and 0.15 and 0.12
NTS1,"Specific Peptide Signal, Gs (Average)",[1],0.48
same,"Specific Peptide Signal, Gq (Average)",[2],0.14
Oregon Green,"Fluorescence lifetime, Labeled Receptor, individual replicates 1-3",[18],2.34 and 2.19 and 2.32
same,"Fluorescence lifetime, Labeled Receptor, Average",[18]; average of 3,2.28
QDG-AAA,cAMP (Relative to Wild-Type Average),[16]; Average,1.60
same,cAMP (Relative to Wild-Type Average),[16]; [20],1.35 and 1.62 and 1.56 and 1.90 and 1.60 and 1.57
